In patent publication US20160207951A1, “ORGANOMETALLIC COMPOUNDS FOR USE AS ANTHELMINTICS” (UNIVERSITÄT ZÜRICH, priority 2013, published 2016):
Like-named read-outs stand apart in the source and are kept apart here.

Columns and labels:
Haemonchus contortus = assay: activity in vitro against Haemonchus contortus (egg hatch and larval development)
Dirofilaria immitis = assay: activity in vitro against Dirofilaria immitis microfilariae (motility); design: dose or concentration left out as unconfirmed
[1] = tested on: Trichostrongylus colubriformis; assay: activity in vitro against Trichostrongylus colubriformis (egg hatch and larval development); design: dose or concentration left out as unconfirmed
H. contortus = assay: larval development assay, number of L3 H. contortus; design: species or system Haemonchus contortus
C. elegans = C. elegans movement inhibition assay
Description: Asynchronous N2 C. elegans worms (Bristol) were maintained on nematode growth medium (NGM) agar, seeded with a lawn on OP50 E. coli as a food-source, according to standard protocol (Maintenance of C. elegans; Stiernagle, T., Ed.; WormBook, 2006.). Worms were harvested from NGM plates by washing with M9 buffer (42 mmol/l Na2HPO4, 22 mmol/l KH2PO4, 86 mmol/l NaCl and 1 mmol/MgSO4), aspiration and collection in a 10 mL tube (Falcon). The average number of worms in 5 μL of this suspension was calculated by transferring 4×5 μL aliquots to a glass slide (Menzel Glaser), and worms were enumerated under a compound microscope (Olympus CH30). To adjust the suspension to contain 1 worm per μL, M9 buffer was either added or removed after pelleting worms at 600×g for 30 sec.
A volume of 70 μL of M9 buffer was added to each well in a 96-well plate, using a multichannel pipettor. A volume of 20 μL of worm suspension was added to each well using a single-channel pipettor, with a trimmed pipette tip (increased aperture to minimize damage to worms). The worm suspension was resuspended by flicking after every three wells to maintain consistency. The compounds were stored at 4° C., and diluted in dimethyl sulfoxide (DMSO) to achieve a 100 mmol/l concentration 1 hr prior to addition to assay. These stock solutions were diluted further in DMSO to create a series of 20 mmol/l, 2 mmol/l, 0.02 mmol/l and 0.002 mmol/l which were subsequently diluted 1:20 in M9 buffer to create 1 mmol/l, 0.1 mmol/l, 1 μmol/l and 0.1 μmol/l (all 5% (v/v) DMSO). […] A Zolvix (monepantel) dilution series was simultaneously created following the same dilution schema, and used as a positive control; 10 μL of 10% DMSO was added to achieve 1% DMSO vehicle control. 10 μL M9 was added to negative control wells (see FIG. 1). Plates were incubated at room temperature (22-24° C.) overnight at 20° C.
Immobile worms were counted as a percentage of total worms in each well using an Olympus SZ30 dissecting microscope. The immobile fraction was subtracted from the total, and this remainder was divided by the total to give a percentage of live worms per well.

[2] = tested on: human cervical cancer HeLa; assay: fluorometric cell viability assay (Resazurin) in HeLa; details: read-out: IC50 in HeLa
Description: (§1) Human cervical carcinoma cells (HeLa) were cultured in DMEM (Gibco) supplemented with 5% fetal calf serum (FCS, Gibco), 100 U/ml penicillin, 100 μg/ml streptomycin at 37° C. and 5% CO2. The normal human fetal lung fibroblast MRC-5 cell line was maintained in F-10 medium (Gibco) supplemented with 10% FCS (Gibco), 200 mmol/l L-Glutamine, 100 U/ml penicillin, and 100 μg/ml streptomycin at 37° C. and 5% CO2. To establish the anticancer potential of the compounds they were tested in one cell line, namely HeLa by a fluorometric cell viability assay using Resazurin (Promocell GmbH). […] 1 day before treatment, cells were plated in triplicates in 96-well plates at a density of 4×10^3 cells/well in 100 μl for HeLa and 7×10^3 cells/well for MRC-5 cells. Cells were treated with increasing concentrations of the compounds for 2 days. After 2 days, medium and drug were removed and 100 ml fresh medium containing Resazurin (0.2 mg/ml final concentration) were added. After 4 h of incubation at 37′C, the highly red fluorescent dye resorufin's fluorescence was quantified at 590 nm emission with 540 nm excitation wavelength in the SpectraMax M5 microplate Reader.

[3] = tested on: human lung fibroblasts MRC-5; assay: fluorometric cell viability assay (Resazurin) in MRC-5; details: read-out: IC50 in MRC-5
Description: as §1

[4] = HeLa cells, treated for 2 days, Resazurin
[5] = MRC-5 cells, treated for 2 days, Resazurin

2-(Hydroxymethyl)ruthenocenecarboxaldehyde oxime [Compound 32]
Activity against Haemontus Contortus at 10 [mg/mL] (Haemonchus contortus): 35% | Activity against Dirofilaria immitis at 10 [mg/mL] (Dirofilaria immitis): 12% | Activity against Trychostrongylus colubriformis at 10 [mg/mL] [1]: 33%

2-(hydroxymethyl)ferrocenecarboxaldehydeoxime [Compound 29]
Activity against Haemontus Contortus at 10 [mg/mL] (Haemonchus contortus): 47% | Activity against Dirofilaria immitis at 10 [mg/mL] (Dirofilaria immitis): 12% | Activity against Trychostrongylus colubriformis at 10 [mg/mL] [1]: 49%

2-(hydroxymethyl)ferrocenylmethylamine [Compound 30]
Activity against Haemontus Contortus at 10 [mg/mL] (Haemonchus contortus): 24% | Activity against Dirofilaria immitis at 10 [mg/mL] (Dirofilaria immitis): 0% | Activity against Trychostrongylus colubriformis at 10 [mg/mL] [1]: 11%

O=C(NC[c-]1cccc1CO)c1ccc(SC(F)(F)F)cc1.[Fe+2].c1cc[cH-]c1 (centres unmarked) [Compound 3]
Number of L3 H. contortus/100 μM (H. contortus): >100 | Activity against Haemontus Contortus at 10 [mg/mL] (Haemonchus contortus): 24% | Activity against Dirofilaria immitis at 10 [mg/mL] (Dirofilaria immitis): 0% | Activity against Trychostrongylus colubriformis at 10 [mg/mL] [1]: 13% | Mobility in C. elegans at 50 μM (C. elegans): 4% | IC50 [2, 4]: 20 µM | IC50 [3, 5]: 44.6 µM

O=[C]=[Co]12(=[C]=O)(=[C]=O)[CH]3[C]1(CNC(=O)c1ccc(SC(F)(F)F)cc1)[Co]32(=[C]=O)(=[C]=O)=[C]=O (centres unmarked) [Compound 4]
Number of L3 H. contortus/100 μM (H. contortus): 76.7 | Activity against Dirofilaria immitis at 10 [mg/mL] (Dirofilaria immitis): 68% | Activity against Trychostrongylus colubriformis at 10 [mg/mL] [1]: 44% | Mobility in C. elegans at 50 μM (C. elegans): 2%

O=[C]=[Co]12(=[C]=O)(=[C]=O)[C]3(CO)[C]1(CNC(=O)c1ccc(SC(F)(F)F)cc1)[Co]32(=[C]=O)(=[C]=O)=[C]=O (centres unmarked) [Compound 5]
Activity against Haemontus Contortus at 10 [mg/mL] (Haemonchus contortus): 64% | Activity against Dirofilaria immitis at 10 [mg/mL] (Dirofilaria immitis): 45% | Activity against Trychostrongylus colubriformis at 10 [mg/mL] [1]: 77%

N#Cc1ccc(C(F)(F)F)c(OCc2ccc[c-]2CNC(=O)c2ccc(SC(F)(F)F)cc2)c1.[Fe+2].c1cc[cH-]c1 (centres unmarked) [Compound 6, N-(2-((5-cyano-2-(trifluormethyl)phenoxy)methyl)ferrocenyl)-4-((trifluoromethyl)thio)benzamide]
Number of L3 H. contortus/100 μM (H. contortus): >100 | Activity against Haemontus Contortus at 10 [mg/mL] (Haemonchus contortus): 20% | Activity against Trychostrongylus colubriformis at 10 [mg/mL] [1]: 31% | Mobility in C. elegans at 50 μM (C. elegans): 1% | IC50 [2, 4]: 27.2 µM | IC50 [3, 5]: 26.7 µM

N#Cc1ccc(C(F)(F)F)c(OC[C]23[C]4(CNC(=O)c5ccc(SC(F)(F)F)cc5)[Co]2(=[C]=O)(=[C]=O)(=[C]=O)[Co]43(=[C]=O)(=[C]=O)=[C]=O)c1 (centres unmarked) [Compound 7, Dicobalthexacarbonyl-N-(4-(5-cyano-2-(trifluoromethyl)phenoxy)but-2-en-1-yl)-4-((trifluoromethyl)thio)benzamide]
Activity against Haemontus Contortus at 10 [mg/mL] (Haemonchus contortus): 63% | Activity against Dirofilaria immitis at 10 [mg/mL] (Dirofilaria immitis): 100% | Activity against Trychostrongylus colubriformis at 10 [mg/mL] [1]: 25% | IC50 [2, 4]: 26.8 µM

CC(C#N)(CO)NC(=O)[c-]1cccc1.[Fe+2].c1cc[cH-]c1 (centres unmarked) [Compound 10]
Number of L3 H. contortus/100 μM (H. contortus): >100 | Activity against Trychostrongylus colubriformis at 10 [mg/mL] [1]: 57% | Mobility in C. elegans at 50 μM (C. elegans): 4%

N#Cc1ccc(C(F)(F)F)c(OCC#CCNC(=O)c2ccc(SC(F)(F)F)cc2)c1 [Compound 13, N-(4-(5-cyano-2-(trifluoromethyl)phenoxy)but-2-yn-1-yl)-4-((trifluoromethyl)thio)benzamide]
Activity against Haemontus Contortus at 10 [mg/mL] (Haemonchus contortus): 52% | Activity against Dirofilaria immitis at 10 [mg/mL] (Dirofilaria immitis): 19% | Activity against Trychostrongylus colubriformis at 10 [mg/mL] [1]: 49% | IC50 ([2]; Homo sapiens, HeLa, 48 h): 30.6 µM | IC50 ([3]; Homo sapiens, MRC5, 48 h): 96.4 µM

O=C(NCC#CCO)c1ccc(SC(F)(F)F)cc1 [Compound 14, N-(4-hydroxybut-2-yn-1-yl)-4-((trifluoromethyl)thio)benzamide]
Activity against Haemontus Contortus at 10 [mg/mL] (Haemonchus contortus): 32% | Activity against Dirofilaria immitis at 10 [mg/mL] (Dirofilaria immitis): 46% | Activity against Trychostrongylus colubriformis at 10 [mg/mL] [1]: 51% | IC50 ([2]; Homo sapiens, HeLa, 48 h): > 100 µM

C#CCNC(=O)c1ccc(SC(F)(F)F)cc1 [Compound 15]
Number of L3 H. contortus/100 μM (H. contortus): >100 | Activity against Haemontus Contortus at 10 [mg/mL] (Haemonchus contortus): 51% | Activity against Dirofilaria immitis at 10 [mg/mL] (Dirofilaria immitis): 28% | Activity against Trychostrongylus colubriformis at 10 [mg/mL] [1]: 51% | Mobility in C. elegans at 50 μM (C. elegans): 3%

CN(C)Cc1ccc[c-]1C=O.[Fe+2].c1cc[cH-]c1 (centres unmarked) [Compound 27, 2-(N,N-dimethylaminomethylferrocene)carboxaldehyde]
Activity against Haemontus Contortus at 10 [mg/mL] (Haemonchus contortus): 39% | Activity against Dirofilaria immitis at 10 [mg/mL] (Dirofilaria immitis): 18% | Activity against Trychostrongylus colubriformis at 10 [mg/mL] [1]: 44%

CC(=O)OCc1ccc[c-]1C=O.[Fe+2].c1cc[cH-]c1 (centres unmarked) [Compound 28, 2-(acetoxymethylferrocene)carboxaldehyde]
Activity against Haemontus Contortus at 10 [mg/mL] (Haemonchus contortus): 14% | Activity against Dirofilaria immitis at 10 [mg/mL] (Dirofilaria immitis): 15% | Activity against Trychostrongylus colubriformis at 10 [mg/mL] [1]: 6%

O=C[c-]1cccc1CO.[Fe+2].c1cc[cH-]c1 (centres unmarked) [Compound 31, 2-(Hydroxymethylferrocene)carboxaldehyde]
Activity against Haemontus Contortus at 10 [mg/mL] (Haemonchus contortus): 40% | Activity against Trychostrongylus colubriformis at 10 [mg/mL] [1]: 37%

CC(=O)OCc1ccc[c-]1C=O.[Ru+2].c1cc[cH-]c1 (centres unmarked) [Compound 36, 2-(Acetoxymethylruthenocene)carboxaldehyde]
Activity against Haemontus Contortus at 10 [mg/mL] (Haemonchus contortus): 52% | Activity against Dirofilaria immitis at 10 [mg/mL] (Dirofilaria immitis): 11% | Activity against Trychostrongylus colubriformis at 10 [mg/mL] [1]: 54%

I[c-]1cccc1.N#CS[c-]1cccc1.[Ru+2] [Compound 40, 1,1′-Thiocyanatoiodruthenocene]
Activity against Dirofilaria immitis at 10 [mg/mL] (Dirofilaria immitis): 98% | Activity against Trychostrongylus colubriformis at 10 [mg/mL] [1]: 55%

N-(2-cyano-1-hydroxypropan-2-yl)ruthenoceneamide [Compound 41]
Activity against Haemontus Contortus at 10 [mg/mL] (Haemonchus contortus): 0% | Activity against Trychostrongylus colubriformis at 10 [mg/mL] [1]: 0%

N-ferrocenyl-4-((trifluoromethyl)thio)benzamide [Compound 2]
Number of L3 H. contortus/100 μM (H. contortus): >100 | Activity against Dirofilaria immitis at 10 [mg/mL] (Dirofilaria immitis): 69% | Activity against Trychostrongylus colubriformis at 10 [mg/mL] [1]: 80% | Mobility in C. elegans at 50 μM (C. elegans): 0% | IC50 [2, 4]: 17.6 µM | IC50 [3, 5]: 42 µM

Thiocyanatoruthenocene [Compound 39]
Activity against Haemontus Contortus at 10 [mg/mL] (Haemonchus contortus): 0% | Activity against Dirofilaria immitis at 10 [mg/mL] (Dirofilaria immitis): 66% | Activity against Trychostrongylus colubriformis at 10 [mg/mL] [1]: 0%

Trifluoromethylthioferrocene [Compound 38]
Activity against Haemontus Contortus at 10 [mg/mL] (Haemonchus contortus): 0% | Activity against Dirofilaria immitis at 10 [mg/mL] (Dirofilaria immitis): 31% | Activity against Trychostrongylus colubriformis at 10 [mg/mL] [1]: 0%
